# Experiments:
# Conditions in all cases: PC-3
# [1] = target: T1, Ephrin type-A receptor 1 (Homo sapiens) (UniProt P21709); assay: Inhibition of EphA1 in human PC3 cell lysates at 10 uM using desthiobiotin-tagged ATP probe AX9989 followed by trypsinization by LC/MS analysis
# T1 sequence (whole entry): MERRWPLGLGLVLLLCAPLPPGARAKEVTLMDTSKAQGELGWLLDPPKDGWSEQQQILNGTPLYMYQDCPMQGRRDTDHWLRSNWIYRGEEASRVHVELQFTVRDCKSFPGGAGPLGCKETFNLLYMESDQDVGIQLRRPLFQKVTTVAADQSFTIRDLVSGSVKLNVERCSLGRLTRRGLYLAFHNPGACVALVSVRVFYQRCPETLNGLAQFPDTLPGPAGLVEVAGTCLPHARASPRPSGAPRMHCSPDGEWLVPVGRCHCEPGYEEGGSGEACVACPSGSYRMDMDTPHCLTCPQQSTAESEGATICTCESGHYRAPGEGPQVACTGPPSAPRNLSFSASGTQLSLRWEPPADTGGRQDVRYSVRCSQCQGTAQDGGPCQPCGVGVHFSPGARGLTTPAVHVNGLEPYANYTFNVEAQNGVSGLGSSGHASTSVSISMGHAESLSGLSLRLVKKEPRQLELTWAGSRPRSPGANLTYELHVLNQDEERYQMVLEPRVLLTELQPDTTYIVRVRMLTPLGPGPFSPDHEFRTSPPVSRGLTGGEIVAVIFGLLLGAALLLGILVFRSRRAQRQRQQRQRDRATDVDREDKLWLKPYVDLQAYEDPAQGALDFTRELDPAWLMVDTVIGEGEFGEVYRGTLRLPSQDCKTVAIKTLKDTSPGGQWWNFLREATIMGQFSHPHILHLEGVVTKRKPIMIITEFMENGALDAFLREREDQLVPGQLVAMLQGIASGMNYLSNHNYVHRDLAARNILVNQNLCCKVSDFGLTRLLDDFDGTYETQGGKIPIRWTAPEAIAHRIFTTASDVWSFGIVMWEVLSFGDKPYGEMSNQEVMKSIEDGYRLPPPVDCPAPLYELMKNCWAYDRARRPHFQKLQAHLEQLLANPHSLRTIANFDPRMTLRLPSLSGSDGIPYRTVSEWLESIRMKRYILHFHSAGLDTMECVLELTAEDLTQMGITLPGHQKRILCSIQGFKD
# [2] = target: Tyrosine-protein kinase CSK (Homo sapiens) (UniProt P41240); assay: Inhibition of CSK in human PC3 cell lysates at 10 uM using desthiobiotin-tagged ATP probe AX9989 followed by trypsinization by LC/MS analysis
# [3] = target: Cyclin-dependent kinase 5 (Homo sapiens) (UniProt Q00535); assay: Inhibition of CDK5 in human PC3 cell lysates at 10 uM using desthiobiotin-tagged ATP probe AX9989 followed by trypsinization by LC/MS analysis
# [4] = target: Serine/threonine-protein kinase Chk2 (Homo sapiens) (UniProt O96017); assay: Inhibition of CHK2 in human PC3 cell lysates at 10 uM using desthiobiotin-tagged ATP probe AX9989 followed by trypsinization by LC/MS analysis
# [5] = target: Serine/threonine-protein kinase WNK2 (Homo sapiens) (UniProt Q9Y3S1); assay: Inhibition of Wnk2 in human PC3 cell lysates at 10 uM using desthiobiotin-tagged ATP probe AX9989 followed by trypsinization by LC/MS analysis
# [6] = target: Ribosomal protein S6 kinase alpha-3 (Homo sapiens) (UniProt P51812); assay: Inhibition of RSK2 domain2 in human PC3 cell lysates at 10 uM using desthiobiotin-tagged ATP probe AX9989 followed by trypsinization by LC/MS analysis
# [7] = target: Macrophage-stimulating protein receptor (Homo sapiens) (UniProt Q04912); assay: Inhibition of RON in human PC3 cell lysates at 10 uM using desthiobiotin-tagged ATP probe AX9989 followed by trypsinization by LC/MS analysis
# [8] = target: Rho-associated protein kinase 1 (Homo sapiens) (UniProt Q13464); assay: Inhibition of ROCK1 in human PC3 cell lysates at 10 uM using desthiobiotin-tagged ATP probe AX9989 followed by trypsinization by LC/MS analysis
# [9] = target: Protein kinase C alpha type (Homo sapiens) (UniProt P17252); assay: Inhibition of PKCalpha in human PC3 cell lysates at 10 uM using desthiobiotin-tagged ATP probe AX9989 followed by trypsinization by LC/MS analysis
# [10] = target: Mitogen-activated protein kinase 11 (Homo sapiens) (UniProt Q15759); assay: Inhibition of p38beta in human PC3 cell lysates at 10 uM using desthiobiotin-tagged ATP probe AX9989 followed by trypsinization by LC/MS analysis
# [11] = target: T2, Serine/threonine-protein kinase Nek9 (Homo sapiens) (UniProt Q8TD19); assay: Inhibition of NEK9 in human PC3 cell lysates at 10 uM using desthiobiotin-tagged ATP probe AX9989 followed by trypsinization by LC/MS analysis
# T2 sequence (whole entry): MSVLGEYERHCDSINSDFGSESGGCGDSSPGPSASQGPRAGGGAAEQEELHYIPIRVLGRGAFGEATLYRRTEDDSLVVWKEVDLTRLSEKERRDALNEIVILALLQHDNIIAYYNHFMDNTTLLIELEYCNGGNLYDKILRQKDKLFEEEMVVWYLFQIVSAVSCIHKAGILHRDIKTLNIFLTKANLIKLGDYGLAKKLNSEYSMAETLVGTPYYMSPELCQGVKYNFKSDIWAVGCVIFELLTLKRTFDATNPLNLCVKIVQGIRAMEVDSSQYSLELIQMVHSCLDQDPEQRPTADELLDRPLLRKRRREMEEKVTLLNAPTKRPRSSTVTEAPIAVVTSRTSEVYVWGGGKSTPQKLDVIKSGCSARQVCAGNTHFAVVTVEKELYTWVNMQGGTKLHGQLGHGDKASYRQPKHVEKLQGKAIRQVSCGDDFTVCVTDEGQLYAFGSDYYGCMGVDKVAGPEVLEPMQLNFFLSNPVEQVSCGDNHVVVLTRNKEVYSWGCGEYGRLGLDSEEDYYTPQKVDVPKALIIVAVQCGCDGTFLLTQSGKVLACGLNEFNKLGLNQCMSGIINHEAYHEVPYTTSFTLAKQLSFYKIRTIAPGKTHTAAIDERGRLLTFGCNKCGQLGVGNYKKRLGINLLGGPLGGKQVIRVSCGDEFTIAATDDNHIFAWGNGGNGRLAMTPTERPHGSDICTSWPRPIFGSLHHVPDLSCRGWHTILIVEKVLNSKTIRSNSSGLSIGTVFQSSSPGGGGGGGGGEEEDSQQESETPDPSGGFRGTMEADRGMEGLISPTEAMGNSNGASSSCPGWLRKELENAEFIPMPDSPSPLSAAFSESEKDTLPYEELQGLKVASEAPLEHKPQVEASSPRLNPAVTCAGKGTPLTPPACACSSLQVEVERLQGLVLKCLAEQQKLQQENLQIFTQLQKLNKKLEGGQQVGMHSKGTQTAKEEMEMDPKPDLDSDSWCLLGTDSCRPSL
# Sequence of Cyclin-dependent kinase 5 (Homo sapiens) (Q00535 whole entry, looked up): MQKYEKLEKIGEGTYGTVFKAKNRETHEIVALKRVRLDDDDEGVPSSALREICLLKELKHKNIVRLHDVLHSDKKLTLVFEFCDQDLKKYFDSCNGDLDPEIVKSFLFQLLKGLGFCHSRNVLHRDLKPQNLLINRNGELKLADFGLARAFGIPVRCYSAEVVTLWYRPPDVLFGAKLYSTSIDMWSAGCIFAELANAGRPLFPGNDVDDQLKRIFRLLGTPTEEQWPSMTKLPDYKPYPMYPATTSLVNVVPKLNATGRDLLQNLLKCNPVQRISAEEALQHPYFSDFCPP
# Sequence of Ribosomal protein S6 kinase alpha-3 (Homo sapiens) (P51812 whole entry, the tested form may be a part): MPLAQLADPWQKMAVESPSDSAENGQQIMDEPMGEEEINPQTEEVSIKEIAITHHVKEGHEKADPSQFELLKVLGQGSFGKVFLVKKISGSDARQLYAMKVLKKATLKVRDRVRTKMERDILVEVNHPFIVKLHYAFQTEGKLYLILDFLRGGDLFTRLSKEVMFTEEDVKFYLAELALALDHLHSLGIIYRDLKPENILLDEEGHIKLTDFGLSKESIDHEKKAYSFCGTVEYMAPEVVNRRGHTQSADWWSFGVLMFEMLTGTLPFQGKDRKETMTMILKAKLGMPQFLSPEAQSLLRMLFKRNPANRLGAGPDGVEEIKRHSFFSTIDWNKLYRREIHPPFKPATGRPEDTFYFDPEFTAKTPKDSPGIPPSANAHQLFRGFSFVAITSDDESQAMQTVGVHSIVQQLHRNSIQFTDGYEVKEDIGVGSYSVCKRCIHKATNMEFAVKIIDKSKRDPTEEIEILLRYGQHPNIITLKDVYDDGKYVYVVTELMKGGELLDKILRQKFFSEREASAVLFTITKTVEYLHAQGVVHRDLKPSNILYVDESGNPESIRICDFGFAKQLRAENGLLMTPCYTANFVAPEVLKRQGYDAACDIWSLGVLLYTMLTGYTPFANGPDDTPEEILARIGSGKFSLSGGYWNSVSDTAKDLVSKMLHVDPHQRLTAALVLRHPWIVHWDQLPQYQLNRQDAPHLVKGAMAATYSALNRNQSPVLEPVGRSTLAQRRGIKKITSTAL
# Sequence of Serine/threonine-protein kinase WNK2 (Homo sapiens) (Q9Y3S1 whole entry, the tested form may be a part): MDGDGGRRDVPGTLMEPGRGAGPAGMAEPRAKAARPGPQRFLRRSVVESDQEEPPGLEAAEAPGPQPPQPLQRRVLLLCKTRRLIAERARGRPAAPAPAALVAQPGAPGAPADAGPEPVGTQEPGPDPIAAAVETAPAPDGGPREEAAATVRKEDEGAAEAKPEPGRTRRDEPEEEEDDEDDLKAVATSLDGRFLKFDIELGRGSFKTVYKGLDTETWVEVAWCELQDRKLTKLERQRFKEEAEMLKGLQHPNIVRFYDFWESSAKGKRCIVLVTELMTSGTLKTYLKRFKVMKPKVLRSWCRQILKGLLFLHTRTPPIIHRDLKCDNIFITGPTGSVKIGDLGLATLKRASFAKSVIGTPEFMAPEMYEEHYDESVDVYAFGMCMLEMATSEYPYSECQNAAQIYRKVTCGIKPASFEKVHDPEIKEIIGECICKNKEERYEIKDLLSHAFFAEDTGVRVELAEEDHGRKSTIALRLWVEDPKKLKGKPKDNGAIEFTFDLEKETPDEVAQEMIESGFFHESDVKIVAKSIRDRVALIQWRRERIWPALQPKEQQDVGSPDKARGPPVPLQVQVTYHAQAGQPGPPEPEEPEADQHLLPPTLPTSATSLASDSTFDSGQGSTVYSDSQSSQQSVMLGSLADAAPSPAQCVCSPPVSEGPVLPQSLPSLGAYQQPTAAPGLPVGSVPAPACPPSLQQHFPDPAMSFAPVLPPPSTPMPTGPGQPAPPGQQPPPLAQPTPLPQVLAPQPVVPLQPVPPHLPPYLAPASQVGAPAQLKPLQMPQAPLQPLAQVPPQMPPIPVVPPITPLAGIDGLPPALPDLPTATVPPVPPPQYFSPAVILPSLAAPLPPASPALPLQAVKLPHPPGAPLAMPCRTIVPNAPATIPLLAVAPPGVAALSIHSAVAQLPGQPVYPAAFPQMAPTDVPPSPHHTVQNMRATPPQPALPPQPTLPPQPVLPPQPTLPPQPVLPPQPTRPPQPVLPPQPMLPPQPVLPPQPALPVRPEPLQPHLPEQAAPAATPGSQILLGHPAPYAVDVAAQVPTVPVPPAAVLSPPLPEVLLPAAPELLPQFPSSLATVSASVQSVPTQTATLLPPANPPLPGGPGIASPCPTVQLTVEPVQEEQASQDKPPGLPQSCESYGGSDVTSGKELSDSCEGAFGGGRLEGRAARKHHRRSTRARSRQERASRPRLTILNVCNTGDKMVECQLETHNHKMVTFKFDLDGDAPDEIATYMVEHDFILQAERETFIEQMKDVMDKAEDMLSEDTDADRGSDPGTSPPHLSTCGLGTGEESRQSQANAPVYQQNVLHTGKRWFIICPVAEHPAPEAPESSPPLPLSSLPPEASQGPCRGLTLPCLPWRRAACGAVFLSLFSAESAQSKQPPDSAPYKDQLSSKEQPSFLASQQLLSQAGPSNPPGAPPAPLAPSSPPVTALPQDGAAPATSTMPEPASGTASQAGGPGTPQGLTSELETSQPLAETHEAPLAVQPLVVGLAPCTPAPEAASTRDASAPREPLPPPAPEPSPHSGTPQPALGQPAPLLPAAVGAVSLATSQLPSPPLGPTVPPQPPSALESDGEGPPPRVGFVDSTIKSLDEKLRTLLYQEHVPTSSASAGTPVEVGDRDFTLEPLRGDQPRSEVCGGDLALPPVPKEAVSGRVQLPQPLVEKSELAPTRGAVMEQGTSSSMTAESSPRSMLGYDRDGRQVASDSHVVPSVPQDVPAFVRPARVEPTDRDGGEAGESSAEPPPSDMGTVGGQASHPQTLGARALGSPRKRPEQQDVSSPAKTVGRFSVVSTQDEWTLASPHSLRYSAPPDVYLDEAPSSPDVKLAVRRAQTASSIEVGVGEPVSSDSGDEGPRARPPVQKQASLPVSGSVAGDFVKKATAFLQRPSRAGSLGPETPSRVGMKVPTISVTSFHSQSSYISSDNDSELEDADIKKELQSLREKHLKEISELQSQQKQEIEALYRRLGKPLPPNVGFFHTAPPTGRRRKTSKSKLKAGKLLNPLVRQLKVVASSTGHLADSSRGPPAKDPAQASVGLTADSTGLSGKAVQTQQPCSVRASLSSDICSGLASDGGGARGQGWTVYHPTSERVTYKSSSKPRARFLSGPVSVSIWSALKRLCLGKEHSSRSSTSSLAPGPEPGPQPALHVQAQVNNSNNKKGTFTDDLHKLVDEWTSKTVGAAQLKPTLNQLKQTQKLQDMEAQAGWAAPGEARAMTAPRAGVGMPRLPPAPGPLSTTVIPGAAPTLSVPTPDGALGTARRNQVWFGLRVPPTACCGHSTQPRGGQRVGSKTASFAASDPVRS
# Sequence of Serine/threonine-protein kinase Chk2 (Homo sapiens) (O96017 whole entry): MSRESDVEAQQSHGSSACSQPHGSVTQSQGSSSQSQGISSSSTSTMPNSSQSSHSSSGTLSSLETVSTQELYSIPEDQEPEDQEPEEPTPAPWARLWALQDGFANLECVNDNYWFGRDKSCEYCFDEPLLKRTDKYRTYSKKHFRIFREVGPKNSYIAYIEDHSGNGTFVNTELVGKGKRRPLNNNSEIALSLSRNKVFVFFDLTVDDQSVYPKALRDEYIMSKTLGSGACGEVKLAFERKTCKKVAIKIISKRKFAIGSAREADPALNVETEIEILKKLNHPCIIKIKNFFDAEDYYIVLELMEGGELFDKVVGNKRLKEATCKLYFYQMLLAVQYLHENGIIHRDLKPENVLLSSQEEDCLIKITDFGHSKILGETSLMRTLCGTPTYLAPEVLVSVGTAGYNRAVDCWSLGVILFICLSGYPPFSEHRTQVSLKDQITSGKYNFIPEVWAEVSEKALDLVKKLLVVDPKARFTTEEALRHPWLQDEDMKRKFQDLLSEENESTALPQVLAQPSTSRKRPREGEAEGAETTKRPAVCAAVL
# Sequence of Tyrosine-protein kinase CSK (Homo sapiens) (P41240 2-450 limits assumed): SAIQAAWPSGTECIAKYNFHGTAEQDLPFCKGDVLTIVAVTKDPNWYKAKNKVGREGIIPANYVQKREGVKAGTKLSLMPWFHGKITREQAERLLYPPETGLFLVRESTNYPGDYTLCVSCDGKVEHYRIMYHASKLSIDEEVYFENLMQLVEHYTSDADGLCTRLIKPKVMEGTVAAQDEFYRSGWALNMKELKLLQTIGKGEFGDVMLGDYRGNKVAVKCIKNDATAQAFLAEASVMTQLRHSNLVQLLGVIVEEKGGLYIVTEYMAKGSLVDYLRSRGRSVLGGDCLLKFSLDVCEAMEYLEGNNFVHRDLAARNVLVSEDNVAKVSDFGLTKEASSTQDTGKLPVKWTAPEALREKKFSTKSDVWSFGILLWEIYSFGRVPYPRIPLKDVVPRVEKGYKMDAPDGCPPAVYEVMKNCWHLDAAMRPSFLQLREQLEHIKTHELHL
# Sequence of Mitogen-activated protein kinase 11 (Homo sapiens) (Q15759 whole entry): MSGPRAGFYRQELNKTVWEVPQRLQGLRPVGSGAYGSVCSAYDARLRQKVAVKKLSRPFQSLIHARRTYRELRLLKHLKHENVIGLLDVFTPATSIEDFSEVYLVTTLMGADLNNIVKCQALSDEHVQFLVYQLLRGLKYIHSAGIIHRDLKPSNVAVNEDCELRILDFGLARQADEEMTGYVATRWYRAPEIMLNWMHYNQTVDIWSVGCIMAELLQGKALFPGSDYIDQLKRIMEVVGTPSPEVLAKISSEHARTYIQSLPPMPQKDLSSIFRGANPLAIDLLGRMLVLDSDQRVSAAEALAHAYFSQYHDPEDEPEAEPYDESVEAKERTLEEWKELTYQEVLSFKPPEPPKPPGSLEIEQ
SMILES,inhibition [1],inhibition [2],inhibition [3],inhibition [4],inhibition [5],inhibition [6],inhibition [7],inhibition [8],inhibition [9],inhibition [10],inhibition [11]
NC(=O)c1ccc2nc(N[C@H]3CC[C@H](O)CC3)c3nccn3c2c1,< 35%,< 35%,< 35%,< 35%,< 35%,< 35%,< 35%,< 35%,< 35%,< 35%,< 35%
O=C(NC1(Cc2ccc(F)cc2)CC1)c1ccc2nc(N[C@H]3CC[C@H](O)CC3)c3nccn3c2c1,< 35%,< 35%,< 35%,< 35%,< 35%,< 35%,< 35%,< 35%,< 35%,< 35%,< 35%
O=C(NC1(c2ccccc2)CCC1)c1ccc2nc(N[C@H]3CC[C@H](O)CC3)c3nccn3c2c1,< 35%,< 35%,< 35%,< 35%,< 35%,< 35%,< 35%,< 35%,< 35%,< 35%,< 35%
C[C@@H](NC(=O)c1ccc2nc(N[C@H]3CC[C@H](O)CC3)c3nccn3c2c1)c1ccccc1,< 35%,< 35%,< 35%,36.9%,< 35%,< 35%,< 35%,< 35%,< 35%,< 35%,< 35%
C[C@H](NC(=O)c1ccc2nc(N[C@H]3CC[C@H](O)CC3)c3nccn3c2c1)c1ccccc1,< 35%,< 35%,< 35%,< 35%,< 35%,< 35%,< 35%,< 35%,< 35%,< 35%,< 35%
O=C(O)c1ccc2nc(N[C@H]3CC[C@H](O)CC3)c3nccn3c2c1,< 35%,< 35%,< 35%,35%,< 35%,< 35%,< 35%,< 35%,< 35%,< 35%,< 35%
O=C(NC1(c2ccc(F)cc2)CC1)c1ccc2nc(N[C@H]3CC[C@H](O)CC3)c3nccn3c2c1,< 35%,< 35%,< 35%,< 35%,< 35%,< 35%,< 35%,< 35%,< 35%,< 35%,< 35%

# Second part, led by results:
inhibition [1],inhibition [2],inhibition [3],inhibition [4],inhibition [5],inhibition [6],inhibition [7],inhibition [8],inhibition [9],inhibition [10],SMILES,inhibition [11]
< 35%,< 35%,< 35%,< 35%,< 35%,< 35%,< 35%,< 35%,< 35%,< 35%,CC[C@@H](NC(=O)c1ccc2nc(N[C@H]3CC[C@H](O)CC3)c3nccn3c2c1)c1ccccc1,< 35%
< 35%,< 35%,< 35%,45.6%,< 35%,< 35%,< 35%,< 35%,< 35%,< 35%,O=C(N[C@H](CO)c1ccccc1)c1ccc2nc(N[C@H]3CC[C@H](O)CC3)c3nccn3c2c1,< 35%
< 35%,< 35%,< 35%,< 35%,< 35%,< 35%,< 35%,< 35%,< 35%,< 35%,O=C(NC1(c2ccccc2)CC1)c1ccc2nc(N[C@H]3CC[C@H](O)CC3)c3nccn3c2c1,< 35%
< 35%,< 35%,< 35%,< 35%,< 35%,< 35%,< 35%,< 35%,< 35%,< 35%,CCC[C@@H](NC(=O)c1ccc2nc(N[C@H]3CC[C@H](O)CC3)c3nccn3c2c1)c1ccccc1,< 35%
< 35%,< 35%,< 35%,< 35%,< 35%,< 35%,< 35%,< 35%,< 35%,< 35%,CC(C)(NC(=O)c1ccc2nc(N[C@H]3CC[C@H](O)CC3)c3nccn3c2c1)c1ccccc1,< 35%

# From ChEMBL document CHEMBL2417377, “Hit-to-lead optimization and kinase selectivity of imidazo[1,2-a]quinoxalin-4-amine derived JNK1 inhibitors” (Bioorg Med Chem Lett, 2013)
